Like-named read-outs stand apart in the source and are kept apart here. Where a SMILES comes first, the peptide text is derived from it. [ ]: non-standard residue; d: D form. The star is where a group is joined. DOTA = O=C(O)CN1CCN(CC(=O)O)CCN(CC(=O)*)CCN(CC(=O)O)CC1; Sta = CC(C)C[C@H](N)[C@@H](O)CC(=O)O; Cha = N[C@@H](CC1CCCCC1)C(=O)O; Nle = CCCC[C@H](N)C(=O)O; AEEA = NCCOCCOCC(=O)O; Sar = CNCC(=O)O
Tests used:
PC-3 xenografts [1] = test: Biodistribution in nude mice bearing subcutaneous PC-3 xenografts; type: in vivo, CD1 nude mice
Procedure: (§1) For animal experiments, the institutional and national guide for the care and use of laboratory animals was followed. CD1 nude mice (n = 36, female, 6 weeks old, 18-22 g body weight) were subcutaneously injected in the right thigh with 2 × 10^6 PC-3 cells in 300 μl of a medium-to-matrigel solution (50:50, v:v, BD Biosciences). […] DOTA-PEG4-BN conjugates were radiolabelled with ^111In as described elsewhere, and 1.85 MBq (0.25 μg, 7.4 MBq/μg in 100 μl NaCl) of radiopharmaceutical was injected in the tail vein of each animal. Injected dose was determined by counting the syringe before and after injection. At 1 h post injection, three mice per group were anesthetized and placed on a horizontal support for planar imaging. The same procedure was repeated at 6 h and 24 h post injection. Images were acquired for 60 to 90 s with a high-resolution scintigraphic camera equipped with a square tungsten collimator integrated with a CsI(Tl) scintillation structure, coupled to a Hamamatsu […] Flat Panel Position Sensitive Photomultiplier Tube (PSPMT), a pure tungsten shielding housing, a charge readout electronics, and a data acquisition system for online image display. Region of interest (ROI) analysis was performed by drawing a region over the visible tumor (target) and copying it to the opposite thigh (background). The counts in the tumor ROI divided by the counts in the background ROI provided tumor-to-background (T/B) ratios. After each imaging session, mice were euthanized. The organs and the tumors were excised and weighed, and the radioactivity was determined using a single well γ-counter. Results were expressed as percentage of injected dose per gram (%ID/g) of tissue.

[2] = biological target: T1, gastrin-releasing peptide receptor (GRP-R) on PC-3 human prostate cancer cells (Homo sapiens, UniProt P30550); test: Saturation binding experiments on whole PC-3 cells with 111In-labeled DOTA-PEG4-BN conjugates; conditions: 4 °C; for B max (binding sites/cell) *10^5: 111In-labeled
T1 construct: endogenous in cells; host or cells: PC-3 human prostate cancer cells
T1 sequence (P30550 whole entry): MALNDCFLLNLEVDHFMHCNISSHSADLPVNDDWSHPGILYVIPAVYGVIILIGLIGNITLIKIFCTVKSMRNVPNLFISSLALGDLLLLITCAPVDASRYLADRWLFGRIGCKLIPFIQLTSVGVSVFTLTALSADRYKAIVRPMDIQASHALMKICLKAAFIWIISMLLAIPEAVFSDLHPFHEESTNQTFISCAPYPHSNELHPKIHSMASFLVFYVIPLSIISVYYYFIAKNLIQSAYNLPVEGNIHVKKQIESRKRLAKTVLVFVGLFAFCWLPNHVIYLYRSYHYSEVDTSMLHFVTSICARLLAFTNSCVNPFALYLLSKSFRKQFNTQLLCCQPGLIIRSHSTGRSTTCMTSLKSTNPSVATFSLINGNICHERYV
Procedure: DOTA-PEG4-BN conjugates were studied in vitro performing saturation binding experiments on whole cells. The DOTA coupled derivatives were labeled in Eppendorf tubes containing 10 μL of ^111InCl3 (50–150 KBq/μL), 1 nmol of peptide (10 μM final concentration), and sodium acetate buffer (0.4 M, pH 5) adjusted to a final volume of 100 μL. The solution was incubated for 30 min at 95 °C in a heating block. Silica gel thin layer chromatography using 0.1 N sodium citrate (pH 5) as mobile phase was utilized for quality control. […] Saturation of free chelators with cold indium was not performed. Confluent PC-3 human prostate cancer cells were seeded in six-well plates (~1.0 × 10^6 cells) 24 h before starting the experiments. Increasing concentrations of the ^111In-DOTA-peptide ranging from 50 to 0.05 nM were assigned to different wells. For blocking experiments, excess of the respective unlabeled peptide was used. For each radioligand, triplicates were prepared for every concentration, for both total binding and nonspecific binding. Before adding the radioligands to the wells, the plates were placed on ice for 30 min. After adding the radioligands and the blocking for nonspecific binding, the plates were incubated for 1 h at 4 °C. Afterwards, the binding buffer was removed and the cells were washed twice with ice-cold phosphate-buffered saline (PBS; pH 7.4). Cell-bound radioactivity was subsequently recovered by trypsinization of the wells. Radioactivity in the bound and free fractions was determined with a WIZARD gamma counter (Wallac, Turku, Finland). Specific binding was calculated by subtracting nonspecific from total binding at each concentration of radioligand. Affinity (Kd) and binding site density (Bmax) were calculated from Scatchard plots using Prism software (GraphPad Software Inc.).
Saturation binding experiments were performed on PC-3 cells at 4 °C.

[3] = Serum stability of 177Lu-labeled peptides in human serum; type: in vitro ADME; conditions: human serum (freshly prepared), 37 °C
Procedure: Quality controls to determine the labeling yield and the radiochemical purity were performed using radio-HPLC. Radiolabeled peptides were utilized without further purification. […] The mixture was incubated in a 5 % CO2, 37 °C. At different time points, 100 μL aliquots (in triplicates) were removed and treated with 200 μL of EtOH to precipitate serum proteins. Samples were then centrifuged for 15 min at 5000 rpm (2655g). After centrifugation, 50 μL of supernatant was removed and counted in a γ-well counter; the sediment was washed twice with 1 mL of EtOH and counted. The activity in the supernatant was compared with the activity in the pellet to obtain the percentage of peptide not bound to proteins or radiometal transferred to serum proteins. The supernatant was also analyzed with radio-HPLC (eluents: A = 0.1 % trifluoroacetic acid in water and B = acetonitrile; gradient 0–25 min 95–50 % B) to determine the relative amount of intact peptide and its metabolites in the serum. The half-life was calculated fitting a first-order reaction to the experimental data (Equation 1) using Prism software (GraphPad Software Inc.).

PC-3 xenografts [4] = test: Gamma camera planar imaging, tumor-to-background ROI analysis in mice with PC-3 xenografts; type: in vivo, CD1 nude mice
Procedure: as §1, with “Region of interest (ROI) analysis was performed by drawing a region over the visible tumor (target) and copying it to the opposite thigh (background). The counts in the tumor ROI divided by the counts in the background ROI provided tumor-to-background (T/B) ratios. After each imaging session, mice were euthanized.” left out

[5] = Biodistribution in nude mice bearing subcutaneous PC-3 xenografts; type: in vivo, CD1 nude mice; conditions: female, CD1 nude, mouse, blood, iv, 0.25 μg, total radioactivity; 111In-labeled, 1 h post injection
Procedure: as §1

[6] = 111In-labeled, i.v., 1, 6, 24 h
[7] = first-order fit, read-out: Serum half-life (converted)

CSCC[C@H](NC(=O)[C@H](CC(C)C)NC(=O)[C@H](Cc1c[nH]cn1)NC(=O)CNC(=O)[C@@H](NC(=O)[C@H](C)NC(=O)[C@H](Cc1c[nH]c2ccccc12)NC(=O)[C@H](CCC(N)=O)NC(=O)COCCOCCNC(=O)COCCOCCNC(=O)CN1CCN(CC(=O)O)CCN(CC(=O)O)CCN(CC(=O)O)CC1)C(C)C)C(N)=O [BN1]
Tumor targeting / uptake in PC-3 xenografts (in words) (PC-3 xenografts [1]; [6]): rather poor | Blood clearance / circulating half-life (in words) (PC-3 xenografts [1]; mouse, in vivo, iv): very rapid blood clearance | B max (binding sites/cell) *10^5 [2]: 2.45 ± 0.73 binding sites/cell *10^5

CCCC[C@H](NC(=O)[C@H](CC1CCCCC1)NC(=O)[C@H](Cc1c[nH]cn1)NC(=O)CNC(=O)[C@@H](NC(=O)[C@H](C)NC(=O)[C@H](Cc1c[nH]c2ccccc12)NC(=O)[C@H](CCC(N)=O)NC(=O)COCCOCCNC(=O)COCCOCCNC(=O)CN1CCN(CC(=O)O)CCN(CC(=O)O)CCN(CC(=O)O)CC1)C(C)C)C(N)=O [BN2, -Gln-Trp-Ala-Val-Gly-His-Cha-Nle-NH2] ({DOTA-AEEA-AEEA}-QWAVGH[Cha][Nle]-NH2)
half-life at 0.6 nmol/mL [3, 7]: ~20 h | B max (binding sites/cell) *10^5 [2]: 4.10 ± 1.23 binding sites/cell *10^5

CCCC[C@H](NC(=O)[C@H](CC1CCCCC1)NC(=O)[C@H](Cc1c[nH]cn1)NC(=O)CNC(=O)[C@@H](NC(=O)[C@H](C)NC(=O)[C@H](Cc1c[nH]c2ccccc12)NC(=O)[C@H](CCC(N)=O)NC(=O)COCCOCCNC(=O)COCCOCCNC(=O)CN1CCN(CC(=O)O)CCN(CC(=O)O)CCN(CC(=O)O)CC1)C(C)C)C(=O)N[C@@H](CCC(=O)O)C(N)=O [BN3, -Gln-Trp-Ala-Val-Gly-His-Cha-Nle-Glu-NH2] ({DOTA-AEEA-AEEA}-QWAVGH[Cha][Nle]E-NH2)
half-life at 0.6 nmol/mL [3, 7]: 40.7 h | Specific binding to PC-3 cells (in words) [2]: no specific binding was detectable

CC(C)C[C@H](NC(=O)C[C@H](O)[C@H](CC(C)C)NC(=O)[C@H](Cc1c[nH]cn1)NC(=O)CNC(=O)[C@@H](NC(=O)[C@H](C)NC(=O)[C@H](Cc1c[nH]c2ccccc12)NC(=O)[C@H](CCC(N)=O)NC(=O)COCCOCCNC(=O)COCCOCCNC(=O)CN1CCN(CC(=O)O)CCN(CC(=O)O)CCN(CC(=O)O)CC1)C(C)C)C(N)=O [BN4, -Gln-Trp-Ala-Val-Gly-His-Sta-Leu-NH2] ({DOTA-AEEA-AEEA}-QWAVGH[Sta]L-NH2)
Tumor-to-background (T/B) ratios in vivo (in words) (PC-3 xenografts [4]; 111In-labeled, tumor ROI vs opposite thigh): least favorable of all peptides | tissue uptake at 1 h [5]: ~5 %ID/g | Blood clearance / circulating half-life (in words) (PC-3 xenografts [1]; [6]): longest circulating half-life of all tested compounds | Tumor targeting / uptake in PC-3 xenografts (in words) (PC-3 xenografts [1]; [6]): very high initial uptake that dropped at later time points | half-life at 0.6 nmol/mL [3, 7]: 224 h | B max (binding sites/cell) *10^5 [2]: 5.54 ± 1.56 binding sites/cell *10^5

CC(C)C[C@H](NC(=O)C[C@H](O)[C@H](CC(C)C)NC(=O)[C@H](Cc1c[nH]cn1)NC(=O)CN(C)C(=O)[C@@H](NC(=O)[C@H](C)NC(=O)[C@H](Cc1c[nH]c2ccccc12)NC(=O)[C@H](CCC(N)=O)NC(=O)COCCOCCNC(=O)COCCOCCNC(=O)CN1CCN(CC(=O)O)CCN(CC(=O)O)CCN(CC(=O)O)CC1)C(C)C)C(N)=O [BN5, -Gln-Trp-Ala-Val-NMeGly-His-Sta-Leu-NH2] ({DOTA-AEEA-AEEA}-QWAV[Sar]H[Sta]L-NH2)
B max (binding sites/cell) *10^5 [2]: 1.56 ± 0.39 binding sites/cell *10^5

CC(C)C[C@H](NC(=O)C[C@H](O)[C@H](CC(C)C)NC(=O)[C@H](Cc1c[nH]cn1)NC(=O)CNC(=O)[C@@H](NC(=O)[C@H](C)NC(=O)[C@H](Cc1c[nH]c2ccccc12)NC(=O)[C@H](CCC(N)=O)NC(=O)[C@@H](Cc1ccccc1)NC(=O)COCCOCCNC(=O)COCCOCCNC(=O)CN1CCN(CC(=O)O)CCN(CC(=O)O)CCN(CC(=O)O)CC1)C(C)C)C(N)=O [BN6, -DPhe-Gln-Trp-Ala-Val-Gly-His-Sta-Leu-NH2]
half-life at 0.6 nmol/mL [3, 7]: 208 h

CCCC[C@H](NC(=O)[C@H](CC1CCCCC1)NC(=O)[C@H](Cc1c[nH]cn1)NC(=O)CNC(=O)[C@@H](NC(=O)[C@H](C)NC(=O)[C@H](Cc1c[nH]c2ccccc12)NC(=O)[C@H](CCC(N)=O)NC(=O)[C@@H](Cc1ccccc1)NC(=O)COCCOCCNC(=O)COCCOCCNC(=O)CN1CCN(CC(=O)O)CCN(CC(=O)O)CCN(CC(=O)O)CC1)C(C)C)C(N)=O [BN7, -DPhe-Gln-Trp-Ala-Val-Gly-His-Cha-Nle-NH2]
Blood clearance / circulating half-life (in words) (PC-3 xenografts [1]; [6]): very rapid blood clearance | Tumor targeting / uptake in PC-3 xenografts (in words) (PC-3 xenografts [1]; [6]): overall poor targeting to the receptor-positive xenografts | half-life at 0.6 nmol/mL [3, 7]: ~20 h

CC(C)C[C@H](NC(=O)C[C@H](O)[C@H](CC(C)C)NC(=O)[C@H](Cc1c[nH]cn1)NC(=O)CN(C)C(=O)[C@@H](NC(=O)[C@H](C)NC(=O)[C@H](Cc1c[nH]c2ccccc12)NC(=O)[C@H](CCC(N)=O)NC(=O)[C@@H](Cc1ccccc1)NC(=O)COCCOCCNC(=O)COCCOCCNC(=O)CN1CCN(CC(=O)O)CCN(CC(=O)O)CCN(CC(=O)O)CC1)C(C)C)C(N)=O [BN8, DOTA-PEG-DPhe-Gln-Trp-Ala-Val-NMeGly-His-Sta-Leu-NH2]
Imaging contrast of tumor uptake (in words) (PC-3 xenografts [4]; gamma camera, 6 h post injection): best contrast of tumor uptake compared to other organs | Tumor targeting / uptake in PC-3 xenografts (in words) (PC-3 xenografts [1]; [6]): highest tumor uptake | half-life at 0.6 nmol/mL [3, 7]: 414 h | half-life at 0.6 nmol/mL ([3]; read-out: Serum/plasma half-life): > 360 h

Source: publication PMC4761355, “Pre-clinical evaluation of eight DOTA coupled gastrin-releasing peptide receptor (GRP-R) ligands for in vivo targeting of receptor-expressing tumors” (EJNMMI Research, 2016)
